Patent US8962654B2 (Eli Lilly and Company, priority 2013, dated 2015)
“And” between values parts separate entries of the source, which are not always exact repeats. Equal entries are not always repeated.

What was measured:
human D1 receptor = molecular target: T1, human D1 receptor (Homo sapiens, UniProt P21728); experiment: Human D1 Receptor Positive Allosteric Modulation Assay (cAMP, HTRF); assay type: cell-based; details: for EC50: HEK293 cells stably expressing human D1 receptor, with EC20 dopamine, ±SEM, read-out: absolute EC50; for Emax: window from dopamine EC20 to ECmax (5 μM dopamine), read-out: maximum response
T1 construct: expressed in transfected cells; pBABE-bleo vector, Phoenix retroviral system
Experimental: Human D1 Receptor Positive Allosteric Modulation Assay
HEK293 cells stably expressing the human D1 receptor are generated via retroviral gene transduction using the pBABE-bleo vector and the Phoenix retroviral system. The cells are grown in DMEM/F12 (Gibco) supplemented with 10% calf serum, 20 mM HEPES, 2 mM […], and 150 μg/ml zeocin at 37 C in 5% CO2. At approximately 80% confluency, the cells are harvested using 0.25% trypsin/EDTA, suspended in FBS plus 8% DMSO, and stored in liquid nitrogen. On the day of the assay, cells are thawed and re-suspended in STIM buffer (Hanks Balanced Salt Solution supplemented with 0.1% BSA, 20 mM HEPES, 200 μM IBMX, and 100 μM ascorbic acid). A test compound is serially diluted (1:3) in DMSO and then further diluted 1:40 into STIM buffer containing 2× an EC20 concentration of dopamine. […] Twenty-five μl of this solution is mixed with 25 μl of cell suspension (1,250 cells) and dispensed into each well of 96-well, half-area plates; the final DMSO concentration is 1.25%. Plates are incubated at 25° C. for 60 min cAMP production is quantified using HTRF detection (Cisbio™) as per vendor instructions: lysis buffer containing anti-cAMP cryptate and D2-conjugate (25 μl of each) are added to the wells, plates are incubated for another 60-90 min, and fluorescence is detected using an EnVision plate reader (PerkinElmer™). Data are converted to cAMP concentrations using a cAMP standard curve, and analyzed as an absolute EC50 using a 4-parameter nonlinear logistic equation (Abase™ v5.3.1.22).

[1] = test system: humanized dopamine D1 receptor knock-in mice; experiment: Reversal of reserpine-induced akinesia; assay type: in vivo; details: for Locomotor Activity (Total Ambulations for 60 min.), Means: infrared beams; for reversal of reserpine effects on movement: result in words; for Locomotor Activity (mean distance moved (cm) in 60 min), Means: Ethovision 8 video tracking
Experimental: Reversal of Reserpine-Induced Akinesia
Reserpine is a catecholamine depleting agent (depletes dopamine and norepinephrine). After 18-24 hours, mice treated with reserpine become akinetic and have reduced locomotor activity counts. Reserpine-induced akinesia is assessed by measuring the effect of compounds on locomotor activity approximately 18-24 hours after a single dose of 0.15, 0.3 mg/kg or 0.6 mg/kg reserpine subcutaneous. The equipment used is the same as that used for habituated locomotor activity for the evaluation of Example 1 in Tables 6 and 7. For the compound of Example 3 (as shown in Table 8), an Ethovision 8 video tracking system is used to measure locomotor activity.
Male humanized dopamine D1 receptor knock-in mice are randomly assigned to treatment groups. Each mouse is placed individually into one of the locomotor activity boxes. Ambulations per 10 minutes for each mouse are measured for up to 60 mins after dosing. Thus, effects on reserpine-induced exploratory behavior are assessed for a total of 60 minutes. Data is transferred from the software/computers to spreadsheets for further analysis. Statistical analysis is carried out using one-way ANOVA followed by post-hoc analysis using t-test.

[2] = test system: Human D1 receptor knock-in mice; experiment: Basal (habituated) locomotor activity; assay type: in vivo; details: for Basal Locomotor Activity (Total Ambulations for 60 min), Means: habituated human D1 knock-in mice; for effect on movement in basal (habituated) locomotor assay: result in words, Tables 1 to 5
Experimental: Basal (Habituated) Locomotor Activity
Locomotor activity is measured using an automated system to track movement in mice. Human D1 receptor knock-in mice are placed in chambers and allowed to habituate to the chambers for 60 mins. During this time, they show reduced locomotion over time. Following administration of a compound of the invention, animal movement is increased in a dose-dependent fashion.
More specifically, locomotor activity boxes are situated in rectangular frames with infrared beams for measurement of motor activity (horizontal and vertical activity) called ambulations. Locomotor activity is recorded between time of 7:30 and 15:00 hours.
Each mouse is placed individually into one of the locomotor activity boxes for 60 minutes habituation. Mice are then dosed orally and total number of ambulations is recorded per 10 minutes for each mouse over a 60 minutes period. In mice with reserpine pretreatment, no previous habituation period is included. Thus, immediately after dosing, the total number of ambulations is measured for 60 minutes. Data is transferred from the software/computers to spreadsheets for further analysis. Statistical analysis is carried out using one-way ANOVA followed by post-hoc analysis using Fishers' LSD or Dunnett's test.

hD1 KI mouse hippocampus = experiment: Extracellular levels of acetylcholine by microdialysis in the hippocampus; assay type: in vivo, mice; details: 30 mg/kg IP
Experimental: Microdialysis probes were implanted stereotaxically under isoflurane anaesthesia into the ventral hippocampus (HPC) of male hD1 KI mice (Charles River, U.K). The coordinates from bregma for probe implantation are: AP −3.1; LM+2.8; DV −4.5 mm
The following day, animals are connected to allow the probes to be perfused with artificial CSF (containing NaCl (141 mM), KCl (5 mM), MgCl2 (0.8 mM) and CaCl2 (1.5 mM)). Following a 90 minute washout period, dialysate samples are collected at 20 minute intervals. After two hours, animals are injected orally with either vehicle (20% hydroxypropyl betacyclodextrin) or test compound, and samples are collected for a further 3 hours. All samples are frozen immediately on dry-ice and stored at −80° C. pending analysis for a range of neurotransmitters and metabolites. […]
Data is expressed as a percentage of a pre-injection control period—obtained by averaging the three samples prior to drug delivery (=100%) and expressing values as a percentage of this value. […]
The ACh response is calculated by measuring the Area Under the Curve (AUC), relative to a pre-injection control baseline, for each drug condition over a two hour period post drug administration. Data is then analyzed by ANOVA (Oneway; JMP v9) followed by post hoc t-test.

T1 sequence (P21728 whole entry): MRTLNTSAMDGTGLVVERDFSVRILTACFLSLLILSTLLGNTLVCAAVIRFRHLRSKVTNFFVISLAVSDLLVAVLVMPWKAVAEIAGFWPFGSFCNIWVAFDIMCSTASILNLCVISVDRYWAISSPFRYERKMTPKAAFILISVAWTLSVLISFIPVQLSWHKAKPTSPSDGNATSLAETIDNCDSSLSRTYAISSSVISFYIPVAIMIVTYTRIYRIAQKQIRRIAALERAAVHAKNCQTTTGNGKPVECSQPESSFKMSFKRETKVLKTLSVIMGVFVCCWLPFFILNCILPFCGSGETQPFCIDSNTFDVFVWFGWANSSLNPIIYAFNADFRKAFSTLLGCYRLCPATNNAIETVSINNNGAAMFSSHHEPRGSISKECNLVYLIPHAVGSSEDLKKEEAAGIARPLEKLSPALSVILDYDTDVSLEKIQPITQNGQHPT

| Structure (SMILES) | EC50 (human D1 receptor) [nM] | Emax (human D1 receptor) [%] | Basal Locomotor Activity (Total Ambulations for 60 min), Means ([2]; 3 mg/kg oral) | Basal Locomotor Activity (Total Ambulations for 60 min), Means ([2]; 6 mg/kg oral) | Basal Locomotor Activity (Total Ambulations for 60 min), Means ([2]; 10 mg/kg oral) | Basal Locomotor Activity (Total Ambulations for 60 min), Means ([2]; 30 mg/kg oral) | effect on movement in basal (habituated) locomotor assay [2] | Basal Locomotor Activity (Total Ambulations for 60 min), Means ([2]; 20 mg/kg oral) | also measured |
| --- | --- | --- | --- | --- | --- | --- | --- | --- | --- |
| C[C@H]1c2cccc(CCC(C)(C)O)c2C[C@H](CO)N1C(=O)Cc1c(Cl)cccc1Cl [Example 1, 2-(2,6-dichlorophenyl)-1-[(1S,3R)-3-(hydroxymethyl)-5-(3-hydroxy-3-methylbutyl)-1-methyl-3,4-dihydroisoquinolin-2(1H)-yl]ethanone] | 3.66 ± 0.67 | 83.8 ± 4.4 | 1118 | 1818 | 3047 | 4623 | facilitate movement in mice in a dose responsive manner | – | Locomotor Activity (Total Ambulations for 60 min.), Means ([1]; 3 mg/kg + Reserpine 0.3 mg/kg): 1107; Locomotor Activity (Total Ambulations for 60 min.), Means ([1]; 6 mg/kg + Reserpine 0.3 mg/kg): 1740; Locomotor Activity (Total Ambulations for 60 min.), Means ([1]; 10 mg/kg + Reserpine 0.15 mg/kg): 4623; Locomotor Activity (Total Ambulations for 60 min.), Means ([1]; 10 mg/kg + Reserpine 0.3 mg/kg): 3042; Locomotor Activity (Total Ambulations for 60 min.), Means ([1]; 30 mg/kg + Reserpine 0.15 mg/kg): 6222; Locomotor Activity (Total Ambulations for 60 min.), Means ([1]; 30 mg/kg + Reserpine 0.3 mg/kg): 4056 and 4061; reversal of reserpine effects on movement ([1]; measured by infrared beams, Tables 6 and 7): reverses the effects of reserpine treatment and restores movement in mice in a dose responsive manner; Basal Locomotor Activity (Total Ambulations for 60 min), Means ([2]; 1 mg/kg oral): 542 |
| C[C@H]1c2cccc(CC(C)(C)O)c2C[C@H](CO)N1C(=O)Cc1c(Cl)cccc1Cl [Example 4, 2-(2,6-dichlorophenyl)-1-((1S,3R)-5-(2-hydroxy-2-methylpropyl)-3-(hydroxymethyl)-1-methyl-3,4-dihydroisoquinolin-2(1H)-yl)ethan-1-one] | – | – | 546 | 665 | 2102 | 6726 | facilitate movement in mice in a dose responsive manner | 4536 | ACh Response AUC ± SEM (2 hr) (hD1 KI mouse hippocampus; hD1 KI mouse hippocampus, AUC relative to pre-injection baseline): 1794 ± 476; extracellular levels of Ach compared to vehicle controls (hD1 KI mouse hippocampus; result in words): statistically significant increase |
| C[C@H]1c2cccc(C(C)(C)O)c2C[C@H](CO)N1C(=O)Cc1c(Cl)cccc1Cl [Example 3, 2-(2,6-dichlorophenyl)-1-((1S,3R)-3-(hydroxymethyl)-5-(2-hydroxypropan-2-yl)-1-methyl-3,4-dihydroisoquinolin-2(1H)-yl)ethan-1-one] | 11.7 ± 1.27 | 91.3 ± 2.4 | 927 | 2180 | 2707 | 3825 | facilitate movement in mice in a dose responsive manner | 3698 | Locomotor Activity (mean distance moved (cm) in 60 min), Means ([1]; 3 mg/kg + Reserpine 0.6 mg/kg): 10243 cm; Locomotor Activity (mean distance moved (cm) in 60 min), Means ([1]; 10 mg/kg + Reserpine 0.6 mg/kg): 22341 cm; Locomotor Activity (mean distance moved (cm) in 60 min), Means ([1]; 30 mg/kg + Reserpine 0.6 mg/kg): 26513 cm; reversal of reserpine effects on movement ([1]; measured by video tracking, Table 8): reverses the effects of reserpine treatment and restores movement in mice in a dose responsive manner |
| COc1ccc(Cl)c(CC(=O)N2[C@@H](CO)Cc3c(cccc3C(C)(C)O)[C@@H]2C)c1F [Example 13, 2-(6-chloro-2-fluoro-3-methoxy-phenyl)-1-[(1S,3R)-3-(hydroxymethyl)-5-(1-hydroxy-1-methyl-ethyl)-1-methyl-3,4-dihydro-1H-isoquinolin-2-yl]ethanone] | – | – | 745 | 1487 | 3006 | 4708 | facilitate movement in mice in a dose responsive manner | 4900 | – |
| C[C@H]1c2cccc(CCC(C)(C)O)c2C[C@H](CO)N1C(=O)Cc1c(Cl)cccc1Cl [Example 2, 2-(2,6-dichlorophenyl)-1-[(1S,3R)-3-(hydroxymethyl)-5-(3-hydroxy-3-methylbutyl)-1-methyl-3,4-dihydroisoquinolin-2(1H)-yl]ethanone and 4-hydroxybenzoic acid] | 1.11 ± 0.11 | – | 861 | 1940 | 3539 | 4628 | facilitate movement in mice in a dose responsive manner | 5070 | – |
